Results: patent publication US20240174690A1, “ANNULATED 2-AMINO-3-CYANO THIOPHENES AND DERIVATIVES FOR THE TREATMENT OF CANCER” (BOEHRINGER INGELHEIM INTERNATIONAL GMBH, priority 2021, published 2024)

How the values were obtained:
[1] = Metabolic (microsomal) stability assay, human liver microsomes (HLM); type: in vitro ADME; details: predicted clearance as percent of liver blood flow, 1 μM
Method: The metabolic degradation of the test compound is assayed at 37° C. with pooled liver microsomes (mouse (MLM), rat (RLM) or human (HLM)). The final incubation volume of 48 μL pertime point contains TRIS buffer (pH 7.5; 0.1 M), magnesium chloride (6.5 mM), microsomal protein (0.5 mg/mL for mouse/rat, 1 mg/mL for human specimens) and the test compound at a final concentration of 1 μM. Following a short preincubation period at 37° C., the reactions are initiated by addition of 12 μL beta-nicotinamide adenine dinucleotide phosphate, reduced form (NADPH, 10 mM) and terminated by transferring an aliquot into solvent after different time points (0, 5, 15, 30, 60 min). Additionally, the NADPH-independent degradation is monitored in incubations without NADPH, terminated at the last time point by addition of acetonitrile. The quenched incubations are pelleted by centrifugation (4,000 rpm, 15 min). An aliquot of the supernatant is assayed by LC-MS/MS to quantify the concentration of parent compound in the individual samples.
In vitro intrinsic clearance (CLint, in vitro) is calculated from the time course of the disappearance of the test drug during the microsomal incubation. Each plot is fitted to the first-order elimination rate constant as C(t)═C0*exp(−ke*t), where C(t) and C0 are the concentration of unchanged test drug at incubation time t and that at preincubation and ke is the disappearance rate constant of the unchanged drug. Subsequently, CLint in vitro (μL min^−1·amount protein) values are converted to predicted CLint,in vivo (mL min^−1 kg^−1) from incubation parameters according to the equation CLint, in vivo=CLint, in vitro×(incubation volume (ml)/amount protein (mg))×(amount protein (mg)/g liver tissue)×(liver weight/body wt.).
For better across species comparison the predicted clearance is expressed as percent of the liver blood flow [% QH] (mL min^−1·kg^−1) in the individual species. In general, high stability (corresponding to low % QH) of the compounds across species is desired.

[2] = tested on: KRAS G12C-dependent Ba/F3 cells; assay: Ba/F3 proliferation assay, KRAS G12C; type: cell-based; details: Mus musculus, BaF3, 72 h, AlamarBlue
Method: Plasmids containing KRASG12 mutants (i.e. […], G12C, G12V) are obtained from GeneScript. To generate KRASG12-dependent Ba/F3 models, Ba/F3 cells are transduced with retroviruses containing vectors that harbor KRASG12 isoforms. Platinum-E cells (Cell Biolabs) are used for retrovirus packaging. Retrovirus is added to Ba/F3 cells. To ensure infection, 4 μg/mL polybrene is added and cells are spinfected. […] Cells with an infection efficiency of 10% to 20% are further cultivated and puromycin selection with 1 μg/mL is initiated. As a control, parental Ba/F3 cells are used to show selection status. Selection is considered successful when parental Ba/F3 cells cultures died. To evaluate the transforming potential of KRASG12 mutations, the growth medium is no longer supplemented with IL-3. Ba/F3 cells harboring the empty vector are used as a control. Approximately ten days before conducting the experiments, puromycin is left out.
Compounds are added using an Access Labcyte Workstation with a Labcyte Echo 550 or 555 accoustic dispenser. All treatments are performed in technical duplicates. […] AlamarBlue™ (ThermoFisher), a viability stain, is added and fluorescence measured in the PerkinElmer Envision HTS Multilabel Reader. The raw data are imported into and analyzed with the Boehringer Ingelheim proprietary software MegaLab (curve fitting based on the program PRISM, GraphPad Inc.).

AsPC-1 cells = assay: AsPC-1 CTG proliferation assay (120 h) (pancreatic cancer, G12D); type: cell-based; details: Homo sapiens, ASPC1
Method: AsPC-1 CTG Proliferation Assay (120 h) (Pancreatic Cancer, G12D)
The CTG assay is designed to measure quantitatively the proliferation of AsPC-1 cells (ATCC […]), using the CellTiter Glow Assay Kit (Promega G7571). Cells are grown in RPMI medium (ATCC) supplemented with Fetal Calf Serum (Life Technologies, Gibco BRL, Cat. No. 10270-106). On “day 0” 2000 AsPC-1 cells are seeded in 60 μL RPMI ATCC+10% FCS+Penstrep in a 384-well plate, flat and clear bottom (Greiner, PNr. 781091). Cells are then incubated in the plates at 37° C. in a CO2 incubator overnight. On day 1, compounds (10 mM stock in DMSO) are added with the ECHO acoustic liquid handler system (Beckman Coulter), including DMSO controls. Plates are incubated for 120 h, and cell viability is measured using CellTiter-Glo luminescent cell viability reagent (Promega product code G7570). Viability (stated as percent of control) is defined as relative luminescence units RLU of each well divided by the RLU of cells in DMSO controls. IC50 values are determined from viability measurements by non-linear regression using a four-parameter model.

[3] = Caco-2 assay (permeability PappAB, PappBA, efflux ratio); type: in vitro ADME; details: human, Caco-2, 10 μM test compound, pH 7.4; for Papp A→B at 90 min, 10 μM: apical to basolateral; for efflux ratio at 90 min, 10 μM: efflux ratio PappBA/PappAB, read-out: Caco ER
Source text: The assay provides information on the potential of a compound to pass the cell membrane, on the extent of oral absorption as well as on whether the compound is actively transported by uptake and/or efflux transporters. Permeability measurements across polarized, confluent Caco-2 cell monolayers grown on permeable filter supports (Corning, catalog #3391) are used. […] The receiver and donor compartments contain 0.25% bovine serum albumine (BSA) in assay buffer. Passive diffusion and/or active transport of compounds across the monolayer is measured in both apical to basolateral (a-b) and basolateral to apical (b-a) direction. a-b permeability (PappAB) represents drug absorption from the intestine into the blood and b-a permeability (PappBA) drug secretion from the blood back into the intestine via both passive permeability as well as active transport mechanisms mediated by efflux and uptake transporters that are expressed on the Caco-2 cells. After a pre-incubation of 25-30 min at 37° C., at predefined time points (0, 30, 60 and 90 min), samples were taken from the receiver and donor compartment, respectively. Concentrations of test compounds in samples were measured by HPLC/MS/MS, samples from the donor compartment were diluted 1:50 (v:v) with assay buffer, samples from receiver compartment were measured without dilution.
Apparent permeabilities in a-b (PappAB) and b-a (PappBA) directions are calculated according to the formula:
[formula] • Vrec [mL]: buffer volume in receiver compartment • Cdon [μmol/mL]: concentration of test compound in donor compartment at t=0 • ΔCrec: difference between concentrations of test compound in receiver compartment at start and end of incubation time • Δt: Incubation time • Vrec·ΔCrec/Δt [μmol/min]: Amount of compound transferred to receiver compartment per time • A [cm^2]: filter surface
Caco-2 efflux ratios (ER) are calculated as the ratio of PappBA/PappAB.

HLM QH [1] [%]	IC50 [2] [nM]	IC50 (AsPC-1 cells) [nM]	Papp A→B at 90 min, 10 μM [3] [×10⁻⁶ cm/s]	efflux ratio at 90 min, 10 μM [3]	Compound
<24	608	2370	–	–	C[C@H]1CN(C)CCCN1c1cc(N2CCN(C)CC2)nc(-c2onc3c2CCC[C@@]32CCCc3sc(N)c(C#N)c32)n1 [I-7]
<24	106	512	–	–	C[C@H](Oc1cc(N2C[C@H](C)NC3(CC3)C2)nc(-c2onc3c2CCC[C@@]32CCCc3sc(N)c(C#N)c32)n1)[C@@H]1CCCN1C [I-8]
<24	264	2850	–	–	C[C@H](Oc1cc(N2CCN3CCC3C2)nc(-c2onc3c2CCC[C@@]32CCCc3sc(N)c(C#N)c32)n1)[C@@H]1CCCN1C (some centres unmarked) [I-9]
30	218	–	< 2.1	–	C[C@H](Oc1cc(N2CCNCC23CCOC3)nc(-c2onc3c2CCC[C@@]32CCCc3sc(N)c(C#N)c32)n1)[C@@H]1CCCN1C (some centres unmarked) [I-10]
37	314	903	–	–	C[C@H](Oc1cc(N2CCNC[C@@]23CCOC3)nc(-c2noc3c2CCC[C@@]32CCCc3sc(N)c(C#N)c32)n1)[C@@H]1CCCN1C [II-51]
<24	47	1550	–	–	C[C@H](Oc1cc(N2CCOC3(CC3)C2)nc(-c2noc3c2CCC[C@@]32CCCc3sc(N)c(C#N)c32)n1)[C@@H]1CCCN1C [II-61]
<24	114	3300	–	–	C[C@H](Oc1cc(N2Cc3cnn(C)c3C2)nc(-c2noc3c2CCC[C@@]32CCCc3sc(N)c(C#N)c32)n1)[C@@H]1CCCN1C [II-63]
27	9	1070	–	–	C[C@H](Oc1cc(N2CCNC2=O)nc(-c2noc3c2CCC[C@@]32CCCc3sc(N)c(C#N)c32)n1)[C@@H]1CCCN1C [II-64]
<24	97	3560	–	–	C[C@H](Oc1cc(-n2cnc3cccnc32)nc(-c2noc3c2CCC[C@@]32CCCc3sc(N)c(C#N)c32)n1)[C@@H]1CCCN1C [II-65]
<24	28	2800	–	–	C[C@H](Oc1cc(C2=CCOCC2)nc(-c2noc3c2CCC[C@@]32CCCc3sc(N)c(C#N)c32)n1)[C@@H]1CCCN1C [II-67]
41	22	783	–	–	C[C@H](Oc1cc(N2CCCC3(COC3)C2)nc(-c2noc3c2CCC[C@@]32CCCc3sc(N)c(C#N)c32)n1)[C@@H]1CCCN1C [II-72]
53	10	1810	–	–	C[C@H](Oc1cc(N2CCCC2=O)nc(-c2noc3c2CCC[C@@]32CCCc3sc(N)c(C#N)c32)n1)[C@@H]1CCCN1C [II-73]
<24	50	3210	–	–	C[C@H](Oc1cc(-c2cnn(C)c2)nc(-c2noc3c2CCC[C@@]32CCCc3sc(N)c(C#N)c32)n1)[C@@H]1CCCN1C [II-74]
34	14	738	–	–	C[C@H](Oc1cc(N2CCOC3(COC3)C2)nc(-c2noc3c2CCC[C@@]32CCCc3sc(N)c(C#N)c32)n1)[C@@H]1CCCN1C [II-77]
35	37	2120	–	–	C[C@H](Oc1cc(-c2ccncc2)nc(-c2noc3c2CCC[C@@]32CCCc3sc(N)c(C#N)c32)n1)[C@@H]1CCCN1C [II-78]
45	24	2830	–	–	Cc1nccn1-c1cc(O[C@@H](C)[C@@H]2CCCN2C)nc(-c2noc3c2CCC[C@@]32CCCc3sc(N)c(C#N)c32)n1 [II-79]
30	21	5080	–	–	C[C@H](Oc1cc(-c2cncs2)nc(-c2noc3c2CCC[C@@]32CCCc3sc(N)c(C#N)c32)n1)[C@@H]1CCCN1C [II-80]
72	15	5130	–	–	C[C@H](Oc1cc(-c2ccn(C3COC3)n2)nc(-c2noc3c2CCC[C@@]32CCCc3sc(N)c(C#N)c32)n1)[C@@H]1C[C@H](F)CN1C [II-83]
<24	36	3060	–	–	C[C@H](Oc1cc(-c2ccn(-c3ccsc3)n2)nc(-c2noc3c2CCC[C@@]32CCCc3sc(N)c(C#N)c32)n1)[C@@H]1CCCN1C [II-84]
<24	157	3810	–	–	C[C@H](Oc1cc(N2CCc3cccnc32)nc(-c2noc3c2CCC[C@@]32CCCc3sc(N)c(C#N)c32)n1)[C@@H]1CCCN1C [II-90]
<24	47	3920	–	–	C[C@H](Oc1cc(-n2cccc3cnnc2-3)nc(-c2noc3c2CCC[C@@]32CCCc3sc(N)c(C#N)c32)n1)[C@@H]1CCCN1C [II-92]
44	16	4640	–	–	C[C@H](Oc1cc(-n2ccnc2Cl)nc(-c2noc3c2CCC[C@@]32CCCc3sc(N)c(C#N)c32)n1)[C@@H]1CCCN1C [II-93]
<24	7	–	–	–	Cc1nc(-c2cc(O[C@@H](C)[C@@H]3CCCN3C)nc(-c3noc4c3CCC[C@@]43CCCc4sc(N)c(C#N)c43)n2)cs1 [II-103]
<24	24	–	–	4.2	C[C@H](Oc1cc(-c2ccn3ncnc3c2)nc(-c2noc3c2CCC[C@@]32CCCc3sc(N)c(C#N)c32)n1)[C@@H]1CCCN1C [II-104]
–	12	1320	< 10	1.1	C[C@H](Oc1cc(-n2cncc3ccnc2-3)nc(-c2noc3c2CCC[C@@]32CCCc3sc(N)c(C#N)c32)n1)[C@@H]1CCCN1C [II-105]
<24	29	–	–	–	C[C@H](Oc1cc(-c2cn(C3CCOCC3)nn2)nc(-c2noc3c2CCC[C@@]32CCCc3sc(N)c(C#N)c32)n1)[C@@H]1CCCN1C [II-115]
